Eleven compounds from patent EP0831811B1, “CARBAZOLES FOR TREATING MICROBIAL INFECTIONS” (priority 1995, dated 1996) can be followed below.

In data set [1] the test system is Calf thymus DNA. The experiment in a line: DNA binding by thermal melting (ΔTm). Conditions: for DNA binding calf thymus ΔTm(°C): absorbance at 259 nm, heated at 18°C/h, average of at least two determinations. The protocol:
DNA binding potency was determined for each of the compounds because previous work had determined that the binding of dicationic molecules to DNA is a prerequisite for their antimicrobial activity. See e.g., Tidwell, R.R., et al., Antimicrob. Agents Chemother. 37, 1713-1716 (1993); Bell, C. A., et al., Antimicrob. Agents Chemother. 35, 1099-1107 (1991). The DNA binding of the compounds was determined by the change in melting of the DNA bound to the experimental compounds. The method is well documented and is a considered a standard method for determining DNA binding strength. See Cory, M.. et al., J. Med. Chem. 25, 431-438 (1992). In brief, a UV-visible light spectrophotometer with a cuvette changer was interfaced to a microcomputer that recorded the cuvette temperature and DNA-absorbance data at 259 nm as the sample was heated at a rate of 18°C/h. Calf thymus DNA was used at an initial absorbance of 0.3A259. The midpoint of each denaturation curve was determined after graphic selection on the computer of the starting and ending absorbance temperature for each curve of each experiment. DNA or DNA bound to experimental compound was run in each experiment and the ΔTms were determined from the polynucleotide Tm for that experiment. […] The data reported in Table 1 represent the average of at least two determinations of ΔTm.

Data set [2] concerns Pneumocystis carinii. Put plainly: Rat model of P. carinii pneumonia (PCP): cysts per gram of lung. The data set is classed as in vivo. The note with it: for response vs control in vivo at 5 mg/kg: immunosuppressed rats, dose 5.0 mg/kg iv once daily for 14 days, means ± SEM, percent of saline-treated controls; for anti-P. carinii activity (in words): rat model, carbazoles tested at one half the dose of pentamidine. The protocol:
(§1) The activity of the compounds against P. carinii was carried out according to an established method. See Tidwell, R. R., et al., J. Med. Chem. 33, 1252-1257 (1990); Jones, S. K., et al., Antimicrob. Agents Chemother. 34, 1026-1030 (1990); Tidwell, R.R., et al., Antimicrob. Agents Chemother. 37, 1713-1716 (1993). The induction and treatment of P. carinii pneumonia (PCP) was carried out with only minor alterations to published methods. See Frenkel, J.K. et al., Lab. Invest. 15, 1559 (1966); Hughes, W.T. et al., Antimicrob. Agents Chemother. 5, 289 (1974). Briefly, male Sprague-Dawley rats (barrier raised, not certified virus-free) weighing 150-200g each, were obtained (Hilltop Laboratories, Scottsdale, PA). Immediately upon arrival, the animals were caged individually and begun on a low protein (8%) diet and on drinking water containing tetracycline (0.5 mg/mL) and dexamethasone ([…]). This regimen was continued for eight weeks. At the beginning of the seventh week, animals were divided into groups of 8 or more, and the test compounds were administered for 14 days by single daily IV injection. Generally, the daily dose was 5 mg/kg of body weight and was dissolved in 0.4 mL of saline. Saline- and pentamidine-treated groups were included as controls.
Animals were sacrificed at the end of the eighth week by chloroform inhalation. The right lung was inflated in situ with 10% formalin and fixed for histological examination. The lung tissue was sectioned in the long axis and exposed to the GMS stain, which selectively identified the walls of the P. carinii cysts.
The left lung was weighed, ground through a No. 60 wire mesh screen, and suspended 1:10 (wt/vol) in 10 mM β-mercaptoethanol-Hanks' balanced salts solution (HBSS) without cations. Slides were prepared by spotting 5 µL of lung homogenate diluted 1:10 in HBSS with β-mercaptoethanol and allowed to air dry. The slides were stained with cresyl violet, and the cysts were counted by a blinded protocol. The number of cysts per gram of original lung tissue was calculated, and the groups were reported as the percentages of saline-treated controls.
Anti-P. carinii activity is measured by the reduction in the number of cysts per gram of lung tissue for treated animals as compared to untreated controls. The anti-P. carinii value for each compound is expressed as the percent of cysts in the treatment group as compared to the control group. […] It should be noted that compound 3 was tested at one half the dose of pentamidine as were all of the carbazoles.

Data set [3] in a line: Toxicity seen in the rat PCP treatment study. Details: species or system Sprague-Dawley rats. The note with it: in vivo, iv, 5 mg/kg. As to the method:
as §1

Data set [4] relates to Cryptococcus neoformans. The experiment in a line: Broth dilution antifungal susceptibility test (NCCLS M27-P), MIC and MFC. The data set is classed as cell-based. The protocol:
(§2) Activity of the compound was assessed using a standard in vitro fungal cell growth inhibition assay (the broth dilution antifungal susceptibility testing of yeast, proposed standard document M27-P, validated by the National Committee for Clinical Laboratory Standards, 1992). Briefly, this broth dilution procedure uses PMI media, and an inoculum of […] with media alone. After the minimal inhibitor concentration was determined by the above procedure, tubes with no visible growth were subcultured to determine the minimum fungicidal concentration by using criteria of less than 0.01% survival of original inoculum. Two organisms were tested: (1) H99, a clinical isolate of C. neoformans which is fully susceptible to azoles and polyenes in vitro and in vivo; and (2) A39, a clinical isolate of C. albicans which is fully susceptible to azoles and polyenes.
(§3) The MFC's (minimum fungicidal concentration) for compound 9 against these two important AIDS-associated fungal infections are shown in Table 2.

In data set [5] the test system is C. albicans. Described as above. The format is cell-based. The protocol: as §2, §3
Data set [6] relates to Cryptosporidium parvum. Put plainly: Neonatal mouse model of Cryptosporidium parvum infection: oocysts in the bowel. The format is in vivo. The note with it: for Efficacy: C. parvum. The protocol: Besides the potency shown by this compound against P. carinii infection in the rat model, the compound was also effective in a neonatal mouse model of Cryptosporidium parvum infection. This model has been described in detail in previous reports. See Blagburn, B. L.; et al., Antimicrob. Agents Chemother. 35, 1520-1523 (1991). The compound's activity against C. parvum is measured by a reduction in the number of oocysts detected in the bowel of treated mice compared to untreated controls.

The mark [7] stands for this setting: Pneumocystis carinii, 336 h, read-out: in vivo activity against PCP cysts/g lung % control.
Where [8] appears, read: in vitro fungal cell growth inhibition.

Counter-ions that a name gives are not always drawn.

As to `Cl.Cl.N=C(N)c1ccc2[nH]c3ccc(C(=N)N)cc3c2c1` [Compound 1, 3,6-diamidinocarbazole dihydrochloride], the “DNA binding calf thymus ΔTm(°C)” value in data set [1] turned out to be 17.2 °C. The response vs control in vivo at 5 mg/kg in data set [2] (setting [7]) is 0.8 ± 0.36%. This compound also returned a toxicity in data set [3] of 0.
Regarding `CC(C)N=C(N)c1ccc2[nH]c3ccc(C(N)=NC(C)C)cc3c2c1` [Compound 2, 3,6-diisopropylamidinocarbazole dihydrochloride], the response vs control in vivo at 5 mg/kg in data set [2] (setting [7]) amounted to 0.11 ± 0.08%. This compound returned a toxicity in data set [3] of 0.
The like results for `c1cc2[nH]c3ccc(C4=NCCN4)cc3c2cc1C1=NCCN1` [Compound 3, 3,6-bis(2-imidazolinyl)carbazole dihydrochloride] were, in that order, 0.06 ± 0.02% and 0.
Turning to `Cn1c2ccc(C3=NCCN3)cc2c2cc(C3=NCCN3)ccc21` [Compound 4, 3,6-bis(2-imidazolinyl)-9-methylcarbazole dihydrochloride], in data set [2] (setting [7]), the response vs control in vivo at 5 mg/kg was 0.17 ± 0.11%.
As to `c1cc2c(cc1C1=NCCN1)c1cc(C3=NCCN3)ccc1n2CC1CCCCC1` [Compound 5, 9-cyclohexylmethyl-3,6-bis(2-imidazolinyl)carbazole dihydrochloride], in data set [2] (setting [7]), the response vs control in vivo at 5 mg/kg amounted to 35.8 ± 4.87%. For the same compound, the toxicity in data set [3] came out at 0.
Take `Cn1c2ccc(C3=NCCCN3)cc2c2cc(C3=NCCCN3)ccc21` [Compound 6, 3,6-bis[2-(1,4,5,6-tetrahydropyrimidinyl)]-9-methylcarbazole dihydrochloride]: the “DNA binding calf thymus ΔTm(°C)” value in data set [1] was 13.6 °C. Moreover, the response vs control in vivo at 5 mg/kg in data set [2] (setting [7]) came out at 0.14 ± 0.05%.
Regarding `c1cc2c(cc1C1=NCCCN1)c1cc(C3=NCCCN3)ccc1n2CC1CCCCC1` [Compound 7, 3,6-bis[2-(1,4,5,6-tetrahydropyrimidinyl)]-9-cyclohexylmethylcarbazole dihydrochloride], the “DNA binding calf thymus ΔTm(°C)” value in data set [1] was 7.3 °C. For the same compound, the response vs control in vivo at 5 mg/kg in data set [2] (setting [7]) is 4.1 ± 1.59%. In addition, the “anti-P. carinii activity (in words)” value in data set [2] is recorded as “failed to exhibit anti-P. carinii significantly more potent than the control drug, pentamidine”.
As to `c1cc2[nH]c(-c3ccc4[nH]c5ccc(-c6nc7cc(C8=NCCN8)ccc7[nH]6)cc5c4c3)nc2cc1C1=NCCN1` [Compound 8, 3,6-bis[2-imidazolinyl)-2-benzimidazoyl]carbazole tetrahydrochloride], in data set [1], the “DNA binding (in words)” value is given as “highly potent as a DNA binding agent”. The “DNA binding calf thymus ΔTm(°C)” value in data set [1] was 22.2 °C. Also, in data set [2] (setting [7]), the response vs control in vivo at 5 mg/kg amounted to 61.9 ± 14.5%. Further, the “anti-P. carinii activity (in words)” value in data set [2] is “failed to exhibit anti-P. carinii significantly more potent than the control drug, pentamidine”; in data set [2] (listed as compound 8), “only moderate activity”. The same compound had a toxicity in data set [3] of 0.
Take `Cl.Cl.N=C(N)c1ccc2c(c1)[nH]c1cc(C(=N)N)ccc12` [Compound 9, 2,7-diamidinocarbazole dihydrochloride]: the “DNA binding calf thymus ΔTm(°C)” value in data set [1] came out at 19.0 °C. Also, the response vs control in vivo at 5 mg/kg in data set [2] (setting [7]) came out at 0.17 ± 0.06%. Besides, the MIC in data set [4] (Cryptococcus neoformans, in vitro, H99 clinical isolate of C. neoformans) turned out to be 6.25 µg/mL; in data set [5] (Candida albicans, in vitro, A39 clinical isolate of C. albicans), 0.78 µg/mL. For the same compound, the minimal fungicidal concentration (MFC) is 50 µg/mL in data set [4] (Cryptococcus neoformans, in vitro, H99 clinical isolate of C. neoformans, less than 0.01% survival of original inoculum) and 1.56 µg/mL in data set [5] (Candida albicans, in vitro, A39 clinical isolate of C. albicans, less than 0.01% survival of original inoculum). In addition, the “activity in vitro (in words)” value in data set [4] (setting [8]) and in data set [5] (setting [8]) was “highly active” each time. The compound also registered a toxicity in data set [3] of 0. Further, the “activity against C. parvum (in words)” value in data set [6] is “effective”. The Efficacy in data set [6] (14.6 µmol/kg oral) was 6.1 % control; in data set [6] (29.3 µmol/kg oral), 0.30% control; in data set [6] (58.6 µmol/kg oral), 0.89 % control.
Regarding `c1cc2c(cc1C1=NCCN1)[nH]c1cc(C3=NCCN3)ccc12` [Compound 10, 2,7-bis(2-imidazolinyl)carbazole dihydrochloride], the response vs control in vivo at 5 mg/kg in data set [2] (setting [7]) amounted to 0.5 ± 0.33%. Besides, the toxicity in data set [3] was 0.
In the case of `N=C(N)c1ccc(OCCCCCOc2ccc(C(=N)N)cc2)cc1` [pentamidine, reference compound], the “DNA binding calf thymus ΔTm(°C)” value in data set [1] stood at 10.7 °C. For the same compound, the response vs control in vivo at 10 mg/kg in data set [2] (Pneumocystis carinii, iv, 336 h, read-out: in vivo activity against PCP cysts/g lung % control) was 1.84 ± 0.82%.
